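How tested: cells in 96-well plates exposed to compound for 48 hours at five concentrations. GI50 is the concentration that inhibits growth by half.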 The source made the active and inactive calls. Cut-off read from the data, not from the text of the source: active = GI50 up to about 1.1 µM and inactive = higher.
Columns and labels:
Assay in all cases: inhibition of tumour cell growth, NCI panel, 48 h
PC-3 = system: PC-3
MOLT-4 = system: MOLT-4
NCI-H460 = system: NCI-H460
COLO 205 = system: COLO 205
EKVX = system: EKVX
NCI/ADR-RES = system: NCI/ADR-RES
A549 = system: A549
DU-145 = system: DU-145
M14 = system: M14
Malme-3M = system: Malme-3M
UACC-257 = system: UACC-257
HCT-15 = system: HCT-15
TK-10 = system: TK-10
SN12C = system: SN12C
HOP-62 = system: HOP-62
RPMI-8226 = system: RPMI-8226
KM12 = system: KM12
OVCAR-3 = system: OVCAR-3
RXF 393 = system: RXF 393

Structure (SMILES) | GI50 (PC-3) | GI50 (MOLT-4) | GI50 (NCI-H460) | GI50 (COLO 205) | GI50 (EKVX) | GI50 (NCI/ADR-RES) | GI50 (A549) | GI50 (DU-145) | GI50 (M14) | GI50 (Malme-3M) | GI50 (UACC-257) | GI50 (HCT-15) [µM] | GI50 (TK-10) | GI50 (SN12C) | GI50 (HOP-62) | GI50 (RPMI-8226) | GI50 (KM12) | GI50 (OVCAR-3) | GI50 (RXF 393)
O=C(CC(C(=O)c1cccs1)c1cccs1)c1ccccc1Cl (configuration not stated) | 72.9 µM (inactive) | 46.1 µM (inactive) | 77.1 µM (inactive) | 54 µM (inactive) | 49.8 µM (inactive) | 33.5 µM (inactive) | > 100 µM (inactive) | > 100 µM (inactive) | > 100 µM (inactive) | 61.8 µM (inactive) | 74.3 µM (inactive) | 94.8 | > 100 µM (inactive) | > 100 µM (inactive) | > 100 µM (inactive) | 50.1 µM (inactive) | 93.1 µM (inactive) |  | 
C=C1CC(COc2ccc3c(C)cc(=O)oc3c2)(c2ccccc2)OC1=O (configuration not stated) | 2.2 µM (inactive) | 1.68 µM (inactive) | 7.43 µM (inactive) | 1.34 µM (inactive) | 9.29 µM (inactive) | 2.28 µM (inactive) | 11.5 µM (inactive) | 2.48 µM (inactive) | 1.33 µM (inactive) | 1.3 µM (inactive) | 1.83 µM (inactive) | 1.74 | 1.62 µM (inactive) | 5.27 µM (inactive) | 13.1 µM (inactive) | 0.292 µM (active) | 5.47 µM (inactive) | 2.69 µM (inactive) | 
CCN(CCCl)c1ccc(NC(=O)c2cc(C(=O)NCCN(C)C)cc(C(=O)Nc3ccc(N(CC)CCCl)cc3)c2)cc1 | 2.22 µM (inactive) | 0.151 µM (active) | 0.713 µM (active) |  |  | > 100 µM (inactive) | 6.24 µM (inactive) | 8.41 µM (inactive) | 9.38 µM (inactive) | 13.6 µM (inactive) | 18.1 µM (inactive) | 51.1 | 16.7 µM (inactive) | 2.08 µM (inactive) | 1.82 µM (inactive) | 3.46 µM (inactive) | 8.65 µM (inactive) |  | 5.41 µM (inactive)
CNC(=O)C1(N)c2ccccc2C=Cc2ccccc21 | > 100 µM (inactive) | > 100 µM (inactive) |  | > 100 µM (inactive) | > 100 µM (inactive) | > 100 µM (inactive) | > 100 µM (inactive) | > 100 µM (inactive) | > 100 µM (inactive) | > 100 µM (inactive) |  | > 100 | > 100 µM (inactive) | > 100 µM (inactive) | > 100 µM (inactive) | > 100 µM (inactive) | > 100 µM (inactive) | > 100 µM (inactive) | 
C=CCc1cccc2cc(C(=O)Nc3ccccc3)c(=N)oc12 | 39.2 µM (inactive) | > 100 µM (inactive) | 63.2 µM (inactive) | > 100 µM (inactive) |  | > 100 µM (inactive) | 15 µM (inactive) | > 100 µM (inactive) | 60.7 µM (inactive) | 7.14 µM (inactive) | > 100 µM (inactive) | 33.6 |  | 55.8 µM (inactive) | > 100 µM (inactive) | > 100 µM (inactive) | 38.9 µM (inactive) | > 100 µM (inactive) | > 100 µM (inactive)
CCOC(=O)c1c(NC(=O)c2ccccc2)sc2c1CCC2 | > 100 µM (inactive) | > 100 µM (inactive) | > 100 µM (inactive) | > 100 µM (inactive) | > 100 µM (inactive) | > 100 µM (inactive) | > 100 µM (inactive) | > 100 µM (inactive) | > 100 µM (inactive) |  | > 100 µM (inactive) | > 100 | > 100 µM (inactive) | > 100 µM (inactive) | > 100 µM (inactive) | > 100 µM (inactive) | > 100 µM (inactive) | > 100 µM (inactive) | > 100 µM (inactive)
COC(=O)[C@@H]1COC(=O)N1 | > 100 µM (inactive) | > 100 µM (inactive) | > 100 µM (inactive) | > 100 µM (inactive) | > 100 µM (inactive) | > 100 µM (inactive) | > 100 µM (inactive) | > 100 µM (inactive) | > 100 µM (inactive) | > 100 µM (inactive) | > 100 µM (inactive) | > 100 | > 100 µM (inactive) | > 100 µM (inactive) | > 100 µM (inactive) |  | > 100 µM (inactive) | > 100 µM (inactive) | > 100 µM (inactive)
CN(C)Cc1cc(C(=O)/C=C/c2ccc([N+](=O)[O-])cc2)cc(CN(C)C)c1O | 17 µM (inactive) | 18.9 µM (inactive) |  | 1.99 µM (inactive) | 12.8 µM (inactive) | 26.7 µM (inactive) | 22.7 µM (inactive) | 11 µM (inactive) | 9.23 µM (inactive) |  | 14.1 µM (inactive) | 10.1 | 16 µM (inactive) | 7.8 µM (inactive) | 3.72 µM (inactive) | 2.43 µM (inactive) | 11.9 µM (inactive) | 2.27 µM (inactive) | 14.2 µM (inactive)

From ChEMBL document CHEMBL1201862, “PubChem BioAssay data set” (2004)
